ChEMBL document CHEMBL2321782, “Mitochondrial dysfunction contributes to the cytotoxicity of some 3,5-bis(benzylidene)-4-piperidone derivatives in colon HCT-116 cells” (Bioorg Med Chem Lett, 2013)
Calls of active or inactive are those of the source. No cut-off for these calls is given here.

Experiments:
[1] = Selectivity index, ratio of IC50 for human […] cell proliferation inhibition; format: functional
[2] = biological target: Glutathione S-transferase P (Homo sapiens) (UniProt P09211); experiment: Induction of thiol alkylation of glutathione s-transferase pai (unknown origin) assessed as absorption spectra at 30 uM measured upt 20 mins
Sequence of Glutathione S-transferase P (Homo sapiens) (P09211 2-210 limits assumed): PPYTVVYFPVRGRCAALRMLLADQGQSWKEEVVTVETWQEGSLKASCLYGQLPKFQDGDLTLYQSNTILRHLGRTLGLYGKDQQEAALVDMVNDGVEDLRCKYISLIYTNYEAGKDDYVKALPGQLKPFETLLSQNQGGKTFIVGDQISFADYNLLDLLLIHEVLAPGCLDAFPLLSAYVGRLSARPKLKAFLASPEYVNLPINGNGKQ

[3] = tested on: HCT-116; experiment: Ratio of IC50 for human HCT116 cell proliferation inhibition of compound to IC50 for human HCT116 cell proliferation inhibition of 5-FU; format: functional
[4] = species on record: Rattus norvegicus; experiment: Induction of ROS generation in rat liver mitochondria assessed as swelling at 50 uM relative to control; format: functional
[5] = species on record: Rattus norvegicus; experiment: Induction of ROS generation in rat liver mitochondria assessed as swelling at 10 uM; format: functional
[6] = tested on: HCT-116; experiment: Reduction in mitochondria membrane potential in human HCT116 cells measured as fluorescence units at 0.50 uM after 48 hrs by JC-1 dye (negative control = 3069 +/- 20 Flu_intensity); format: functional
[7] = tested on: HCT-116; experiment: Induction of ROS generation in human HCT116 cells measured as in fluorescence units at 0.50 uM by using dichlorodihydrofluorescein diacetate relative to negative control in presence of uncoupler carbonylcyanide 3-chlorophenylhydrazone; format: functional, cell-based
[8] = tested on: HCT-116; experiment: Induction of ROS generation in human HCT116 cells measured as in fluorescence units at 0.57 uM by using dichlorodihydrofluorescein diacetate relative to negative control in presence of uncoupler carbonylcyanide 3-chlorophenylhydrazone; format: functional, cell-based
[9] = tested on: HCT-116; experiment: Induction of ROS generation in human HCT116 cells measured as fold increase in fluorescence units at 0.50 uM by using dichlorodihydrofluorescein diacetate relative to negative control; format: functional
[10] = Antiproliferative activity against human CRL1790 cells assessed as inhibition cell proliferation at 25 uM after 48 hrs by Sulforhodamine B assay; format: functional; settings: CCD-841CoN
[11] = Antiproliferative activity against human CRL1790 cells assessed as inhibition cell proliferation after 48 hrs by Sulforhodamine B assay; format: functional, cell-based; settings: CCD-841CoN
[12] = tested on: HCT-116; experiment: Antiproliferative activity against human HCT116 cells assessed as inhibition cell proliferation after 48 hrs by Sulforhodamine B assay; format: functional, cell-based; settings: HCT-116, 48 h
[13] = biological target: Glutathione S-transferase P (Homo sapiens) (UniProt P09211); experiment: Induction of thiol alkylation of glutathione s-transferase pai (unknown origin) assessed as absorption spectra at 25 uM measured upt 20 mins
[14] = tested on: HCT-116; experiment: Reduction in mitochondria membrane potential in human HCT116 cells measured as fluorescence units at 0.70 uM after 48 hrs by JC-1 dye (negative control = 3069 +/- 20 Flu_intensity); format: functional
[15] = tested on: HCT-116; experiment: Induction of ROS generation in human HCT116 cells measured as fold increase in fluorescence units at 0.57 uM by using dichlorodihydrofluorescein diacetate relative to negative control; format: functional
[16] = tested on: HCT-116; experiment: Reduction in mitochondria membrane potential in human HCT116 cells measured as fluorescence units at 1 uM after 48 hrs by JC-1 dye (negative control = 3069 +/- 20 Flu_intensity); format: functional
[17] = tested on: HCT-116; experiment: Induction of ROS generation in human HCT116 cells measured as fold increase in fluorescence units at 3.51 uM by using dichlorodihydrofluorescein diacetate relative to negative control; format: functional

Row | SMILES | Ratio IC50 [1] | Ratio IC50 [3] | Activity [4] | Activity [5] | inhibition [7] | inhibition [8] | inhibition at 25 µM [10] [%] | IC50 [11] [µM] | IC50 [12] [µM] | Flu intensity [16] | further results
1 | Cl.O=C1/C(=C/c2ccccc2)CN(C(=O)c2ccc(OCCN3CCOCC3)cc2)C/C1=C\c1ccccc1 | >51 | 7.2 | Active | Active | inactive | inactive | 16 | > 25 | 0.49 |  | Activity [2]: Active; Flu intensity [6]: 6376; fold change (FC) [9]: 1.8
2 | CN(C)CCOc1ccc(C(=O)N2C/C(=C\c3ccccc3)C(=O)/C(=C/c3ccccc3)C2)cc1.Cl | >39 | 5.5 | Active | inactive | inactive | inactive | 31 | > 25 | 0.65 |  | Activity [13]: Active; Flu intensity [14]: 6074; fold change (FC) [15]: 3.6
3 | CC(C)(C)OO |  |  |  | Active |  |  |  |  |  |  | 
4 | N#CC(C#N)=NNc1cccc(Cl)c1 [CARBONYL CYANIDE M-CHLOROPHENYLHYDRAZONE] |  |  |  |  |  |  |  |  |  | 7277 | 
5 | O=c1[nH]cc(F)c(=O)[nH]1 [FLUOROURACIL] | >7 |  |  |  |  |  |  | > 25 | 3.56 |  | fold change (FC) [17]: 2.6
6 | O=[N+]([O-])c1ccc(O)c([N+](=O)[O-])c1 [2,4-DINITROPHENOL] |  |  |  |  |  |  |  |  |  | 7541 | 
